Our source for the Ki and ΔTm values is patent US11504381B1 (priority 2021, dated 2022).

Experiment [1] concerns the target T1, recombinant MDM2 protein (Homo sapiens (Human), UniProt Q00987). As to conditions: competitive binding vs fluorescently labeled peptide probe, 10% DMSO, pH 7.2; read-out: Fluorescence Polarization Assay KI. The protocol: The compounds binding to MDM2 were determined by a quantitative fluorescence polarization binding assay using a recombinant MDM2 protein and fluorescently labeled peptide probes using a BioTek Cytation 5 machine. Compounds were tested in 10% DMSO, 100 mM potassium phosphate pH 7.2, 100 ug/ml bovine γ-globulin, 0.02% (w/v) sodium azide and 0.01% (v/v) triton X-100. KI values of tested compounds were determined in a dose-dependent competitive binding experiment by fitting the sigmoidal dose-dependent FP increases as a function of […] concentrations using Graphpad Prism software.
In general terms: Fluorescence polarisation rises when a labelled molecule tumbles more slowly, as on binding a larger partner.

Experiment [2] concerns the target T1, recombinant MDM2 protein. Put plainly: biochemical. In kind it is binding. The protocol:
Qualitative evaluation of compound binding to MDM2 was determined using a fluorescence-based thermal shift assay with a Roche LC480 lightcycler. Each experiment was performed in ˜30 mins with ramping up of temperature to monitor thermal denaturation of MDM2. Compounds at 0.16 mM, 0.08 mM and 0.04 mM were added to recombinant MDM2 protein and SYPRO orange dye in 5% DMSO 50 mM Bis-Tris Propane pH 8.0 and 100 mM NaCl. Positive thermal shift was indicative of compound binding to the proteins of interest.

T1 sequence (Q00987 whole entry): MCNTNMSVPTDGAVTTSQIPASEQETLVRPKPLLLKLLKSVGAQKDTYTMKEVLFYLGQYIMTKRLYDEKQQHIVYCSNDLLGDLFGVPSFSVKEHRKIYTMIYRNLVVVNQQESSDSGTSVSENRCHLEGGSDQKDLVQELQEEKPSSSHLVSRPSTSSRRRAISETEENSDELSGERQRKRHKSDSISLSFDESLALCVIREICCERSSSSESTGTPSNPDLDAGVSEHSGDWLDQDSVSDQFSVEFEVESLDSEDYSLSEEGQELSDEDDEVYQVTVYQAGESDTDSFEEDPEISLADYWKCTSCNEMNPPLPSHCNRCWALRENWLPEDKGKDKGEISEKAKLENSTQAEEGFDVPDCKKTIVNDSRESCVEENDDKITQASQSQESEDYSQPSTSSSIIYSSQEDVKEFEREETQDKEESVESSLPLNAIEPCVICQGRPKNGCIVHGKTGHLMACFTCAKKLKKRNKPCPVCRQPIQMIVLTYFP

As usually defined, the Ki is a measure of affinity in units of concentration, obtained from inhibition or displacement. Turning to `CC(=O)Nc1cc(C(F)(F)F)cnc1N1CCN(CC(=O)O)CC1c1ccc(Cl)cc1` (stereo not shown) [Compound 2, 2-(4-(3-acetamido-5-(trifluoromethyl)pyridin-2-yl)-3-(4-chlorophenyl)piperazin-1-yl)acetic acid], the Ki on recombinant MDM2 protein [1] was 118 µM. Moreover, on recombinant MDM2 protein [2] (read-out: Thermal Shift 0.04 mM), the ΔTm at 40 µM came out at 0 °C. At recombinant MDM2 protein [2] (read-out: Thermal Shift 0.08 mM), the ΔTm at 80 µM stood at 0 °C. Besides, the ΔTm at 160 µM at recombinant MDM2 protein [2] (read-out: Thermal Shift 0.16 mM) is 0.6 °C.
